Values of other authors as cited in US11608532B2, “Precision medicine for treating and preventing suicidality” (Indiana University Research and Technology Corporation, priority 2017, dated 2023).
Where two headings read alike, the source gives them in different places.

What was measured:
[1] = system: top male bipolar biomarkers for suicidality; conditions: for Drugs that Modulate the Biomarker in Opposite Direction to Suicide: (I) in suicidality, male bipolars
[2] = system: individual top biomarkers for suicidality; conditions: for TNF modulated by drug in opposite direction to suicide: direction of change in suicidality (I) DE/1, (I) AP/1
[3] = B. Top Biomarkers in Males, direction of change in suicidality I, DE/2
[4] = D. Top Biomarkers in Bipolar Disorder, direction of change in suicidality (D), DE/1
[5] = A. Top Universal Biomarkers, direction of change in suicidality (I), DE/2
[6] = C. Top Biomarkers in Females, direction of change in suicidality I, DE/2
[7] = D. Top Biomarkers in Bipolar Disorder, direction of change in suicidality (I), DE/2
[8] = F. Top Biomarkers in Males with Bipolar Disorder, direction of change in suicidality (I), DE/2
[9] = D. Top Biomarkers in Bipolar Disorder
[10] = G. Top Biomarkers in Males with Depression, direction of change in suicidality (D), AP/2
[11] = biomarker HTR2A (5-hydroxytryptamine (serotonin) receptor 2A, G protein-coupled)
[12] = E. Top Biomarkers in Depression, direction of change in suicidality (I), DE/1
[13] = A. Top Universal Biomarkers, direction of change in suicidality (D), AP/1
[14] = biomarker BCL2 (B-cell CLL/lymphoma 2)

## CCN(CC)C(=O)N[C@H]1C=C2c3cccc4[nH]cc(c34)C[C@H]2N(C)C1 [lisuride]
[1]; HTR2A, 244130_at
  Drugs that Modulate the Biomarker in Opposite Direction to Suicide: lisuride

## CN1CCC(=C2c3ccccc3CCc3cccnc32)CC1 [azatadine]
[1]; HTR2A, 244130_at
  Drugs that Modulate the Biomarker in Opposite Direction to Suicide: azatadine

## Cc1ccc(C23CNCC2C3)cc1 (stereo not drawn) [bicifadine]
[2]; [3]
  SLC6A4 modulated by drug in opposite direction to suicide: bicifadine,
[2]; [4]
  SLC6A4 modulated by drug in opposite direction to suicide: bicifadine,

## CNCCCN1c2ccccc2CCc2ccccc21 [desipramine]
[1]; HTR2A, 244130_at
  Drugs that Modulate the Biomarker in Opposite Direction to Suicide: desipramine

## CN[C@@H](C)Cc1ccccc1 [Methamphetamine]
[1]; CRYAB, 209283_at
  Drugs that Modulate the Biomarker in Opposite Direction to Suicide: Methamphetamine

## COc1cc(C(C)=O)ccc1OCCCN1CCC(c2noc3cc(F)ccc23)CC1 [Iloperidone]
[2]; [5]
  HTR2A modulated by drug in opposite direction to suicide: Iloperidone,
[2]; [6]
  HTR2A modulated by drug in opposite direction to suicide: Iloperidone,
[2]; [7]
  HTR2A modulated by drug in opposite direction to suicide: Iloperidone,
[2]; [8]
  HTR2A modulated by drug in opposite direction to suicide: Iloperidone,

## CN(C)CCC=C1c2ccccc2COc2ccccc21 [doxepin]
[1]; HTR2A, 244130_at
  Drugs that Modulate the Biomarker in Opposite Direction to Suicide: doxepin

## COc1ccc(C(CN(C)C)C2(O)CCCCC2)cc1 (stereo not drawn) [Venlafaxine]
[2]; [9]
  TNF modulated by drug in opposite direction to suicide: Venlafaxine

## CN(C)CCC=C1c2ccccc2CCc2ccccc21 [amitriptyline]
[1]; HTR2A, 244130_at
  Drugs that Modulate the Biomarker in Opposite Direction to Suicide: amitriptyline

## O=C1Cc2cc(CCN3CCN(c4nsc5ccccc45)CC3)c(Cl)cc2N1 [ziprasidone]
[1]; HTR2A, 244130_at
  Drugs that Modulate the Biomarker in Opposite Direction to Suicide: ziprasidone

## O=C1CCc2ccc(OCCCCN3CCN(c4cccc(Cl)c4Cl)CC3)cc2N1 [aripiprazole]
[1]; HTR2A, 244130_at
  Drugs that Modulate the Biomarker in Opposite Direction to Suicide: aripiprazole

## CSc1ccc2c(c1)N(CCC1CCCCN1C)c1ccccc1S2 (stereo not drawn) [thioridazine]
[1]; HTR2A, 244130_at
  Drugs that Modulate the Biomarker in Opposite Direction to Suicide: thioridazine

## C[C@H]1Oc2c(cccc2N2CCN(CCCc3c[nH]c4ccc(F)cc34)CC2)NC1=O [SLV-314]
[2]; [3]
  SLC6A4 modulated by drug in opposite direction to suicide: SLV-314
[2]; [4]
  SLC6A4 modulated by drug in opposite direction to suicide: SLV-314

## O=C1NCCN1CCN1CCC(c2cn(-c3ccc(F)cc3)c3ccc(Cl)cc23)CC1 [sertindole]
[1]; HTR2A, 244130_at
  Drugs that Modulate the Biomarker in Opposite Direction to Suicide: sertindole

## CN[C@H]1CC[C@@H](c2ccc(Cl)c(Cl)c2)c2ccccc21 [Sertraline]
[2]; [9]
  TNF modulated by drug in opposite direction to suicide: Sertraline

## CN1C[C@H](C(=O)N[C@]2(C)O[C@@]3(O)[C@@H]4CCCN4C(=O)[C@H](Cc4ccccc4)N3C2=O)C[C@@H]2c3cccc4[nH]cc(c34)C[C@H]21 [dihydroergotamine]
[1]; HTR2A, 244130_at
  Drugs that Modulate the Biomarker in Opposite Direction to Suicide: dihydroergotamine

## CN1CCN(c2ccc(C(=O)Nc3n[nH]c4ccc(Cc5cc(F)cc(F)c5)cc34)c(NC3CCOCC3)c2)CC1 [entrectinib]
[2]; [6]
  NTRK3 modulated by drug in opposite direction to suicide: entrectinib,
[2]; E. Top Biomarkers in Depression, direction of change in suicidality (I) AP/2, (I) DE/1
  NTRK3 modulated by drug in opposite direction to suicide: entrectinib,
[2]; [10]
  NTRK3 modulated by drug in opposite direction to suicide: entrectinib,

## CN1CCN2c3ncccc3Cc3ccccc3C2C1 (stereo not drawn) [Mirtazapine]
[2]; [11]
  Step 6 Drugs that Modulate the Biomarker in Opposite Direction to Suicide: Mirtazapine

## CN1CCN(CCCN2c3ccccc3Sc3ccc(S(=O)(=O)N(C)C)cc32)CC1 [thioproperazine]
[2]; [5]
  HTR2A modulated by drug in opposite direction to suicide: thioproperazine,
[2]; [6]
  HTR2A modulated by drug in opposite direction to suicide: thioproperazine,
[2]; [7]
  HTR2A modulated by drug in opposite direction to suicide: thioproperazine,
[2]; [8]
  HTR2A modulated by drug in opposite direction to suicide: thioproperazine,

## CNCCC(Oc1ccc(C(F)(F)F)cc1)c1ccccc1 (stereo not drawn) [Fluoxetine]
[2]; [6]
  BDNF modulated by drug in opposite direction to suicide: Fluoxetine
[2]; E. Top Biomarkers in Depression, direction of change in suicidality (D), AP/1
  ACP1 modulated by drug in opposite direction to suicide: Fluoxetine
[2]; [12]
  BDNF modulated by drug in opposite direction to suicide: Fluoxetine
  JUN modulated by drug in opposite direction to suicide: Fluoxetine
[2]; [10]
  NTRK3 modulated by drug in opposite direction to suicide: Fluoxetine

## infliximab
[2]; [9]
  TNF modulated by drug in opposite direction to suicide: infliximab,

## Tocilizumab
[2]; biomarker IL6 (interleukin 6)
  Step 6 Drugs that Modulate the Biomarker in Opposite Direction to Suicide: Tocilizumab

## OCCN1CCN(CCCN2c3ccccc3C=Cc3ccccc32)CC1 [opipramol]
[2]; [5]
  HTR2A modulated by drug in opposite direction to suicide: opipramol,
[2]; [6]
  HTR2A modulated by drug in opposite direction to suicide: opipramol,
[2]; [7]
  HTR2A modulated by drug in opposite direction to suicide: opipramol,
[2]; [8]
  HTR2A modulated by drug in opposite direction to suicide: opipramol,

## CN1CCCCC1CCN1c2ccccc2Sc2ccc([S+](C)[O-])cc21 (stereo not drawn) [mesoridazine]
[1]; HTR2A, 244130_at
  Drugs that Modulate the Biomarker in Opposite Direction to Suicide: mesoridazine

## CCO [Alcohol]
[1]
  Drugs that Modulate the Biomarker in Opposite Direction to Suicide (direction of change by drug): (D) and (I)

## CN(C)C(=O)N[C@H]1CC[C@H](CCN2CCN(c3cccc(Cl)c3Cl)CC2)CC1 [cariprazine]
[2]; [5]
  HTR2A modulated by drug in opposite direction to suicide: cariprazine,
[2]; [6]
  HTR2A modulated by drug in opposite direction to suicide: cariprazine,
[2]; [7]
  HTR2A modulated by drug in opposite direction to suicide: cariprazine,
[2]; [8]
  HTR2A modulated by drug in opposite direction to suicide: cariprazine,

## O=C1Cc2cc(CCN3CCN(c4nsc5ccccc45)CC3)c(Cl)cc2N1 [Ziprasidone]
[2]; [11]
  Step 6 Drugs that Modulate the Biomarker in Opposite Direction to Suicide: Ziprasidone

## C/C=C(/C)C(=O)O[C@H]1C(C)=C[C@]23C(=O)[C@@H](C=C(CO)[C@@H](O)[C@]12O)[C@H]1[C@@H](C[C@H]3C)C1(C)C [Ingenol mebutate]
[2]; biomarker PRKCB (protein kinase C, beta), Table 20 CFE drug-evidence
  Drugs that modulate the biomarker PRKCB: Ingenol mebutate
[2]; biomarker PRKCI (protein kinase C, iota)
  Step 6 Drugs that Modulate the Biomarker in Opposite Direction to Suicide: Ingenol

## O=C1CCC(N2C(=O)c3ccccc3C2=O)C(=O)N1 (stereo not drawn) [thalidomide]
[2]; [9]
  TNF modulated by drug in opposite direction to suicide: thalidomide

## CC#C[C@]1(O)CC[C@H]2[C@@H]3CCC4=CC(=O)CCC4=C3[C@@H](c3ccc(N(C)C)cc3)C[C@@]21C [Mifepristone]
[2]; [6]
  BDNF modulated by drug in opposite direction to suicide: Mifepristone
[2]; [12]
  BDNF modulated by drug in opposite direction to suicide: Mifepristone

## tocilizumab
[2]; B. Top Biomarkers in Males, direction of change in suicidality I, AP/2
  IL6 modulated by drug in opposite direction to suicide: tocilizumab,

## Recombinant-methionyl human leptin
[2]; biomarker LEPR (leptin receptor)
  Step 6 Drugs that Modulate the Biomarker in Opposite Direction to Suicide: Recombinant-

## O=C(CCCN1CCC(O)(c2ccc(Cl)cc2)CC1)c1ccc(F)cc1 [haloperidol, reference compound]
[2]; [6]
  BDNF modulated by drug in opposite direction to suicide: Haloperidol
[2]; [12]
  BDNF modulated by drug in opposite direction to suicide: Haloperidol
[2]; biomarker AGA (aspartyl glucosaminidase), Table 20 CFE drug-evidence
  Drugs that modulate the biomarker AGA: Haloperidol
[2]; biomarker AGA (aspartylglucosaminidase)
  Step 6 Drugs that Modulate the Biomarker in Opposite Direction to Suicide: Haloperidol
[2]; biomarker AKAP13 (A kinase (PRKA) anchor protein 13)
  Step 6 Drugs that Modulate the Biomarker in Opposite Direction to Suicide: Haloperidol
[2]; biomarker RIMS3 (regulating synaptic membrane exocytosis 3), Table 20 CFE drug-evidence
  Drugs that modulate the biomarker RIMS3: Haloperidol

## CC[C@@H](CO)NC(=O)[C@@H]1C=C2c3cccc4c3c(cn4C)C[C@H]2N(C)C1 [methysergide]
[1]; HTR2A, 244130_at
  Drugs that Modulate the Biomarker in Opposite Direction to Suicide: methysergide

## Fc1ccc([C@@H]2CCNC[C@H]2COc2ccc3c(c2)OCO3)cc1 [Paroxetine]
[2]; A. Top Universal Biomarkers, direction of change in suicidality (D), AP/4
  CCL28 modulated by drug in opposite direction to suicide: Paroxetine

## CN1CC2c3ccccc3Oc3ccc(Cl)cc3C2C1 (stereo not drawn) [asenapine]
[2]; [5]
  HTR2A modulated by drug in opposite direction to suicide: asenapine,
[2]; [6]
  HTR2A modulated by drug in opposite direction to suicide: asenapine,
[2]; [7]
  HTR2A modulated by drug in opposite direction to suicide: asenapine,
[2]; [8]
  HTR2A modulated by drug in opposite direction to suicide: asenapine,

## OCCOCCN1CCN(C2=Nc3ccccc3Sc3ccccc32)CC1 [Quetiapine]
[2]; [13]
  IFNG modulated by drug in opposite direction to suicide: Quetiapine,
[2]; [11]
  Step 6 Drugs that Modulate the Biomarker in Opposite Direction to Suicide: Quetiapine

## CC(=O)O[C@H]1C(=O)[C@@]2(C)[C@H]([C@H](OC(=O)c3ccccc3)[C@]3(O)C[C@H](OC(=O)[C@H](O)[C@@H](NC(=O)c4ccccc4)c4ccccc4)C(C)=C1C3(C)C)[C@]1(OC(C)=O)CO[C@@H]1C[C@@H]2O [Paclitaxel]
[2]; [14]
  Step 6 Drugs that Modulate the Biomarker in Opposite Direction to Suicide: Paclitaxel

## O=C1CCc2ccc(OCCCCN3CCN(c4cccc(Cl)c4Cl)CC3)cc2N1 [Aripiprazole]
[2]; [13]
  IFNG modulated by drug in opposite direction to suicide: Aripiprazole
[2]; [11]
  Step 6 Drugs that Modulate the Biomarker in Opposite Direction to Suicide: Aripiprazole

## golimumab
[2]; [9]
  TNF modulated by drug in opposite direction to suicide: golimumab,

## Oblimersen
[2]; [14]
  Step 6 Drugs that Modulate the Biomarker in Opposite Direction to Suicide: Oblimersen

## etanercept
[2]; [9]
  TNF modulated by drug in opposite direction to suicide: , etanercept,

## CCc1nn(CCCN2CCN(c3cccc(Cl)c3)CC2)c(=O)n1CCOc1ccccc1 [Nefazodone]
[2]; [11]
  Step 6 Drugs that Modulate the Biomarker in Opposite Direction to Suicide: Nefazodone
